Results published in patent US6743423B1, “Use of adeno-associated viruses for decreasing the radiotherapy-induced or chemotherapy- induced resistance in cancer patients” (Deutsches Krebsforschungszentrum Stiftung des Offentlichen …, priority 1998, dated 2004).

Columns and labels:
Type in all cases: cell-based, human
[1] = system: NCI-H69; experiment: MTT proliferation assay, SCLC cell line NCI-H69 (chemotherapeutic agents with or without AAV-2 infection); conditions: AAV-2 infection 10^4 per cell vs mock infection
Description: (§1) Small cell lung carcinoma cell lines (NCI-H69, NCI-H164, NCI-H209, and NCI-H446) (Cancer Res., 1980, 40, 3502-3507; Cancer Res., 1985, 45, 2913-2923) were cultured in RPMI-1640 medium (Eurobio, Raunheim, Germany). HeLa cells were cultured in DMEN (Eurobio, Raunheim, Germany). All growth media were supplemented with glutamine (Eurobio, 1%), antibiotics (penicillin and streptomycin) and 10% heat-inactivated fetal calf serum (PAA; Liz, Austria). The cultures were incubated at 37° C. in a damp atmosphere with 5% CO2 and tested for mycoplasma contaminations at regular intervals.
The adeno-associated virus type 2 (AAV-2) was replicated in HeLa cells using, adenovirus type 2 (Ad-2) as a helper. […]
The proliferation of the SLCL cells after the infection with AAV-2 and/or treatment with chemotherapeutic agents was determined by the modified MTT test (J. Immunol. Methods, 1983, 56, 55-63). […] The precipitated proteins were pelleted by centrifugation (1000 rpm, 15 min), and 200 ul samples of the supernatant were measured to determine the optical density at 540 nm (OD540), OD690 being used as a reference and a Titertek Multiskan plus MKII densitometer being employed (Lab Systems, Finland). […]
(§2) The AAV-2-infected cells (MOI values as indicated) or mock-infected cells were placed in plates having 24 wells and treated with cisplatin. After six or eight days, the relative proliferation was determined. […]

[2] = system: NCI-H146; experiment: MTT proliferation assay, SCLC cell line NCI-H146 (chemotherapeutic agents with or without AAV-2 infection); conditions: for Sensitization factor (A/Ao)* 10^4 Ip.AAV/Cell: AAV-2 infection 10^4 per cell vs mock infection
[3] = system: NCI-H209; experiment: MTT proliferation assay, SCLC cell line NCI-H209 (chemotherapeutic agents with or without AAV-2 infection); conditions: for Sensitization factor (A/Ao)* 10^4 Ip.AAV/Cell: AAV-2 infection 10^4 per cell vs mock infection
Description: as §1
(§3) The adeno-associated virus type 2 (AAV-2) was replicated in HeLa cells using, adenovirus type 2 (Ad-2) as a helper. AAV was purified in a cesium-chloride gradient and titrated as described in J. Gen. Virol., 1994, 74, 2655-2662. The adenovirus type 2 inocula were clarified supernatants of Ad-2-infected HeLa cells.
(§4) The SCLC cells were suspended in PBS and incubated with purified AAV-2 in the indicated multiplicities of infection (MOI). […]
(§5) The proliferation of the SLCL cells after the infection with AAV-2 and/or treatment with chemotherapeutic agents was determined by the modified MTT test (J. Immunol. Methods, 1983, 56, 55-63). […] The precipitated proteins were pelleted by centrifugation (1000 rpm, 15 min), and 200 ul samples of the supernatant were measured to determine the optical density at 540 nm (OD540), OD690 being used as a reference and a Titertek Multiskan plus MKII densitometer being employed (Lab Systems, Finland).
(§6) The relative proliferation (A/Ao) was defined as the ratio of the absorption (A) measured in the supernatant of AAV-2-infected and/or pharmacon-treated cells, compared with the absorption measured for the supernatant of the mock-infected cells and untreated control cells (Ao). […]
as §2

[4] = system: NCI-H446; experiment: MTT proliferation assay, SCLC cell line NCI-H446 (chemotherapeutic agents with or without AAV-2 infection); conditions: for Sensitization factor (A/Ao)* 10^4 Ip.AAV/Cell: AAV-2 infection 10^4 per cell vs mock infection
Description: as §1, §3, §4, §5, §6, §2

[5] = cells treated only with cisplatin at IC50

Row | SMILES | Sensitization factor (A/Ao)* 10^4 Ip.AAV/Cell [1] | Resistance/susceptibility of the cell line to the agent [2] | Sensitization factor (A/Ao)* 10^4 Ip.AAV/Cell [2] | Sensitization factor (A/Ao)* 10^4 Ip.AAV/Cell [3] | Sensitization factor (A/Ao)* 10^4 Ip.AAV/Cell [4] | Relative proliferation (A/Ao) [3, 5] | Relative proliferation (A/Ao) [4, 5]
1 | COc1cc([C@@H]2c3cc4c(cc3[C@@H](O[C@@H]3O[C@@H]5CO[C@@H](C)O[C@H]5[C@H](O)[C@H]3O)[C@H]3COC(=O)[C@H]23)OCO4)cc(OC)c1O [Etoposide, etoposide] | 1.30 | highly susceptible | 1.38 | 2.12 | 3.00 |  | 
2 | N.N.[Cl][Pt][Cl] [Cisplatin, cisplatin] | 1.43 |  | 1.37 | 2.33 | 2.50 | 0.5 | 0.59
